Reference: article PMC8140105 (Scientific Reports, 2021)
Values joined by “and” are separate entries in the source; they are usually repeats but may differ in a detail not shown here. Equal values may be shown once.

What was measured:
[1] = system: Caco-2 monolayer; experiment: Caco-2 assay (apparent permeability); type: in vitro ADME
Method: Caco-2 (Sigma-Aldrich, Diegem, Belgium) cells were grown in DMEM supplemented with 10% FBS, 1% NEAA and 1% penicillin/streptomycin solution. A total of 3 × 10^5 cells per filter were seeded in a 12-well plate and left for differentiation during 21–29 days (medium change every other day). Monolayer formation was checked by measuring the TEER values which should be above 0.30 kΩ × cm^2 [72]. After washing with Hank’s balanced salt solution, 400 µL of a 1 µM peptide solution was added to the apical side of the filter. After 30, 60, 90 and 120 min, 100 µL of the acceptor compartment was taken for UPLC-MS/MS analysis (Supplementary method S2). Linear curve fitting was used to calculate the apparent permeability coefficient (Papp), as sink conditions were achieved.
The reduction in acceptor concentration was also taken into account after every sampling. The cumulative amount in the acceptor compartment is defined as:2 Cumulativeamount=CrnVr+∑k=1n-1CrkVs with Crk = concentration at sample point k in acceptor compartment; Vr = volume in the receiver chamber; Vs = volume sampled; n = times sampled. […]
Supplementary method S2: UPLC-MS parameters Caco-2 assay
Aliquots of the acceptor compartment are analyzed using the following validated UPLC-
Column Acquity UPLC BEH C18 (2.1 × 100 mm, 1.7 µm) protected with a suitable guard
Sample temperature: 10°C.
A: 93/2/5 (v/v) H2O + ACN + DMSO + 0.1% FA
B: 2/93/5 (v/v) H2O + ACN + DMSO + 0.1% FA
Table 1: Quantifier of PapRIV.
Peptide Mother ion Daughter ion Collision energy MS
Injection volume: 10.0 µL
Table 2: Gradient program
Time (min) Mobile phase A (%) Mobile phase B (%)

[2] = system: BV-2 microglia cells; experiment: MTT viability of BV-2 microglia cells; type: cell-based, murine
[3] = Ex vivo metabolization in serum, tissue and faeces homogenates; type: in vitro ADME, ICR-CD-1 mice; conditions: UPLC-UV/MS; for T1/2 / Metabolites: 37 °C; for T1/2: first order kinetics
Method: Peptide solution (0.1 mg/mL) was incubated with serum, brain, liver, kidney, colon or faeces homogenate at 37 °C. After 0, 5, 10, 30 and 60 min, aliquots were taken for UPLC-UV/MS analysis. Preparation of the tissue homogenates and UPLC-UV/MS parameters are given in supplementary information (Supplementary methods S3-S4). The half-live was calculated using the following equation:4 T1/2=-ln(2)/Slope where the slope is defined by linear regression assuming first order kinetics.
Supplementary method S3: Tissue homogenate preparation
Preparation of Krebs-Henseleit buffer (pH 7.4) (KH-buffer)
The powdered medium was dissolved in 900 mL water while stirring. To this solution, 0.3790 g CaCl2×2H2O and 2.098 g NaHCO3 was subsequently added while stirring. NaOH or HCl was used to adjust to pH 7.4. This solution was then further diluted to 1000 mL using ultrapure […]
Preparation of tissue homogenates
- The liver (n = 1), kidneys (n = 6), brains (n = 3), colons (n = 4) and faeces (0.196 g) of ICR-CD-1 mice were collected.
- After cleaning and rinsing the tissues using ice-cold KH buffer, the tissues were cut in little pieces and transferred into a 50 mL tube to which 36 mL ice-cold KH buffer was added.
- The tissues were then homogenized with at tissue homogenizer.
- After the larger particles were allowed to settle for about 30 minutes at 5°C, approximately 25 mL of the middle layer was transferred into a 50 mL Falcon tube using a plastic pipette.
- After shaking the homogenates, the homogenates were dispensed into 2 mL Eppendorf tubes, and stored at -35°C until use.
- The protein content of the homogenates were determined using the Pierce Modified Lowry […]
- Just before use, the homogenates were diluted to a protein concentration of 0.6 mg/mL (i.e.
300 µg / 500 µL) with KH buffer.
- Into a 1.5 ml Protein LoBind tube, 900 µl of serum/tissue extract (500 µl of homogenate/serum and 400 µl of KH buffer, pH 7.4) was transferred.
- After temperature-equilibration at 37°C for 15 min while shaking at 750 rpm, 100 µl of peptide solution (0.1 mg/mL) was added followed by continued incubation at 37°C (while shaking), with […] aliquots taken after 0, 5, 10, 30 and 60 minutes.
- The aliquots were immediately transferred into 500 µl Protein LoBind Eppendorf tubes containing 100 µl of 1% V/V trifluoroacetic acid solution in water, heated for 5 minutes at 95°C, and cooled for 30 minutes in an ice-bath.
- The samples were then centrifuged at 16,000 g for 5 minutes at 5°C.
- The supernatants was then analyzed by UPLC-UV/MS.
Supplementary method S4: UPLC-UV/MS parameters ex vivo metabolization
The analytical parameters of the UPLC-UV/MS method for the ex vivo metabolization are given […]
Table 3: Analytical parameters of UPLC method […]
Needle wash H2O/ACN/DMSO (45/45/10), post injection (6 s)
Seal wash Methanol/H2O (10/90)

SDLPFEH [PapRIV, heptapeptide (SDLPFEH) quorum sensing peptide originating from the Bacillus cereus group; synthetic, purchased from GL Biochem]
Papp at 4 °C ([1]; Caco-2, 4 °C, compared with Papp at 37 °C, n = 6 (Supplementary Fig. S1)): comparable
Papp ([1]; Caco-2, apical to basolateral, 1 µM peptide (400 µL) after washing with Hank's balanced salt solution, cells differentiated 21–29 days, TEER above 0.30 kΩ × cm^2, acceptor sampled 30, 60, 90, 120 min, 37 °C, UPLC-MS/MS, linear fit, n = 6): 1.37 ± 0.21 × 10^–9 cm/s
Papp in the opposite basolateral-apical direction ([1]; Caco-2, basolateral to apical, compared with apical-basolateral Papp, n = 6 (Supplementary Fig. S1)): comparable
mass balance ([1]; Caco-2 assay, 1 µM, 120 min): < 2%
viability of BV-2 microglia cells ([2]; 25 µM treatment, non-significant decrease): 94.8%
toxic effects towards BV-2 microglia cells ([2]; MTT, up to 25 µM): no significant toxic effects
T1/2 ([3]; mouse brain homogenate 0.6 mg/mL protein in KH buffer pH 7.4, peptide solution 0.1 mg/mL added, 0–60 min): 522.9 min
Metabolites ([3]; mouse brain homogenate, 0–60 min): DLPFEH, LPFEH
metabolization in colon tissue ([3]; mouse colon homogenate 0.6 mg/mL protein in KH buffer pH 7.4, 37 °C, 0–60 min): no metabolization was observed
T1/2 ([3]; mouse faeces homogenate 0.6 mg/mL protein in KH buffer pH 7.4, peptide solution 0.1 mg/mL added, 0–60 min): 89.7 min
Metabolites ([3]; mouse faeces homogenate, 0–60 min): DLPFEH
T1/2 ([3]; mouse kidney homogenate 0.6 mg/mL protein in KH buffer pH 7.4, peptide solution 0.1 mg/mL added, 0–60 min): 20 min and 19.8 min
Metabolites ([3]; mouse kidney homogenate, 0–60 min): DLPFEH, LPFEH
T1/2 ([3]; mouse liver homogenate 0.6 mg/mL protein in KH buffer pH 7.4, peptide solution 0.1 mg/mL added, 0–60 min): 285.7 min
Metabolites ([3]; mouse liver homogenate, 0–60 min): DLPFEH, LPFEH
T1/2 ([3]; serum (500 µl + 400 µl KH buffer pH 7.4 + 100 µl peptide solution 0.1 mg/mL), shaking 750 rpm, aliquots 0, 5, 10, 30, 60 min): 25 min and 24.8 min
Metabolites ([3]; serum, 0–60 min): DLPFEH, LPFEH, LPFE, LPF, SDLPF, DLPF
